Values after ≈ are worked out from the molar mass of the structure shown. Marks after values point to notes of the source that are not given here. Where a SMILES comes first, the peptide text is derived from it. [ ]: non-standard residue; d: D form. The star is where a group is joined. JQ1acid = Cc1sc2c(c1C)C(c1ccc(Cl)cc1)=N[C@@H](CC(=O)*)c1nnc(C)n1-2; NHBn(4-(4-Me-thiazol-5-yl)) = Cc1ncsc1-c1ccc(CN*)cc1; Hyp = O=C(O)[C@@H]1C[C@@H](O)CN1; Tle = CC(C)(C)[C@H](N)C(=O)O; Sar = CNCC(=O)O
Legend:
[1] = Thermodynamic aqueous solubility; assay type: physicochemical; settings: 2 h
Procedure: Saturated solutions were prepared by dissolving the tested compounds in 0.1 M phosphate-buffered saline (pH = 7.4) or 0.01 N HCl solutions and sonicated for 30 s. After equilibration on an orbital shaker at 25 °C for 2 h, the solutions were centrifuged at 13 000 rpm for 5 min and filtered through a 0.2 μm regenerated cellulose (RC) syringe filter. A 400 μL aliquot of each filtrate was diluted with 100 μL of acetonitrile and analyzed by LC-UV. When the measured peak area was out of the calibration range (5–100 μM), the sample was further diluted in water–acetonitrile 1:1 mixture.

BRD4 = biological target: T1, BRD4 (Homo sapiens, UniProt O60885); test: BRD4 degradation by Western blot analysis in MDA-MB-231 cells; assay type: cell-based; settings: for dose-response of BRD4 degradation (in words): 100 nM to 10 μM; for effect of cotreatment with proteasome inhibitor bortezomib on BRD4 degradation: 1 μM compound + 5 nM bortezomib; for BRD4 degradation in time-course experiments (in words) / Densitometry (% of control), BRD4-immunoreactive band relative to DMSO vehicle: 1 μM; for BRD4 degradation in time-course experiments (in words): 4 up to 24 h
T1 construct: endogenous in cells; host or cells: MDA-MB-231
Procedure: In Vitro Biological Validation of PROTACs and Preliminary Assessment of Thermodynamic Aqueous Solubility and Metabolic Stability of Selected BRD4-Degrading PROTACs. With the aim of proving the utility of our platform and the compatibility of the substructures accessible by the MCR strategy with a proximity-based degradation, the ability of our PROTAC candidates to effectively act as BRD4 degraders was tested in the human breast cancer cell line MDA-MB-231, known to express detectable levels of this protein.
The human breast adenocarcinoma MDA-MB-231 cell line was cultured in DMEM (Sigma-Aldrich) supplemented with 10% fetal bovine serum (FBS), 1% glutamine, and 1% penicillin/streptomycin. For Western blot analysis, […] cells/well were plated into 12-well plates containing DMEM complete growth medium, to be treated with the synthesized compounds, at the indicated concentrations, for different time lengths. After treatments, cells were scraped and lysed to obtain protein extract using RIPA lysis buffer supplemented with protease (PIC, Merck-Millipore) and phosphatase inhibitors (NaF 1 M, Na3VO4 1 M, PMSF […], Sigma-Aldrich). Cells lysates were centrifuged at 13 000 rpm for 10 min at 4 °C to remove membranes and insoluble fractions. Protein quantification of the supernatant fraction was performed with Braford protein assay (Sigma-Aldrich). […] aliquots of protein extracts were used for 12% SDS-PAGE. After transfer into nitrocellulose membranes, BRD4 and tubulin protein levels were evaluated by immunoblotting using a rabbit polyclonal anti-BRD4 (Bethyl Laboratories) and a mouse monoclonal α-tubulin (Sigma-Aldrich) IgG as primary antibodies and an antirabbit or antimouse HRP-conjugated secondary antibody (Bio-Rad Laboratories). Protein levels were detected by chemiluminescent conversion of the HRP substrate LumiGLO (Thermo Fisher Scientific) using the ChemiDoc imaging system (Bio-Rad). Band densitometry was assessed, normalized to α-tubulin immunoreactive bands, and reported as percentage of the 0.3% DMSO control lane.

[2] = parameters: method as in PMID 28378579; settings: cited from earlier work
[3] = 0.01 N HCl solution, HCl 0.01 N, pH 2.0, 25 °C
[4] = phosphate-buffered saline, PBS 0.1 M, pH 7.4, 25 °C
[5] = 8 h treatment, MDA-MB-231 cells, from Western blot densitometry

SMILES | solubility thermodynamic at 2 h [1, 3] | solubility thermodynamic at 2 h [1, 4] | dose-response of BRD4 degradation (in words) (BRD4; 8 h, MDA-MB-231 cells) | effect of cotreatment with proteasome inhibitor bortezomib on BRD4 degradation (BRD4; 8 h) | DC50 (BRD4; [5]) | melting point | Densitometry (% of control), BRD4-immunoreactive band relative to DMSO vehicle (BRD4; 4 h, MDA-MB-231 cells) | Densitometry (% of control), BRD4-immunoreactive band relative to DMSO vehicle (BRD4; 8 h, MDA-MB-231 cells) | BRD4 degradation in time-course experiments (in words) (BRD4; MDA-MB-231 cells) | further results
Cc1sc2c(c1C)C(c1ccc(Cl)cc1)=N[C@@H](CC(=O)NCC(=O)NCCCOc1cccc3c1C(=O)N(C1CCC(=O)NC1=O)C3=O)c1nnc(C)n1-2 (stereo partly drawn) [Compound 27, 2-((S)-4-(4-Chlorophenyl)-2,3,9-trimethyl-6H-thieno[3,2-f][1,2,4]triazolo[4,3-a][1,4]diazepin-6-yl)-N-(2-((3-((2-(2,6-dioxopiperidin-3-yl)-1,3-dioxoisoindolin-4-yl)oxy)propyl)amino)-2-oxoethyl)acetamide] | 145 µM (≈ 112 µg/mL) | 48 µM (≈ 37 µg/mL) | showed dose-dependency | abolish BRD4 degradation | 0.0971 µM | 221.3 to 223.6 °C (dec.) |  |  | decreased expression of BRD4 at all the time-points tested | Dmax (BRD4; 8 h treatment, MDA-MB-231 cells, from Western blot densitometry, read-out: Dmax (maximal % of reduction toward DMSO control lane)): 88%
Cc1sc2c(c1C)C(c1ccc(Cl)cc1)=N[C@@H](CC(=O)NCC(=O)NCCCCOc1cccc3c1C(=O)N(C1CCC(=O)NC1=O)C3=O)c1nnc(C)n1-2 (stereo partly drawn) [Compound 28, 2-((S)-4-(4-Chlorophenyl)-2,3,9-trimethyl-6H-thieno[3,2-f][1,2,4]triazolo[4,3-a][1,4]diazepin-6-yl)-N-(2-((4-((2-(2,6-dioxopiperidin-3-yl)-1,3-dioxoisoindolin-4-yl)oxy)butyl)amino)-2-oxoethyl)acetamide] | 48 µM (≈ 37.7 µg/mL) | 17 µM (≈ 13.3 µg/mL) |  |  |  | 231.9 to 232.6 °C (dec.) |  |  |  | 
Cc1sc2c(c1C)C(c1ccc(Cl)cc1)=N[C@@H](CC(=O)NCC(=O)NCCCCCOc1cccc3c1C(=O)N(C1CCC(=O)NC1=O)C3=O)c1nnc(C)n1-2 (stereo partly drawn) [Compound 29, 2-((S)-4-(4-Chlorophenyl)-2,3,9-trimethyl-6H-thieno[3,2-f][1,2,4]triazolo[4,3-a][1,4]diazepin-6-yl)-N-(2-((5-((2-(2,6-dioxopiperidin-3-yl)-1,3-dioxoisoindolin-4-yl)oxy)pentyl)amino)-2-oxoethyl)acetamide] | 39 µM (≈ 31.2 µg/mL) | 15 µM (≈ 12 µg/mL) | degradation was observed only at 1 and 3 μM concentrations | abolish BRD4 degradation | 0.184 µM | 223.4 to 225.1 °C (dec.) |  |  | decreased expression of BRD4 at all the time-points tested | 
Cc1ncsc1-c1ccc(CNC(=O)[C@@H]2C[C@@H](O)CN2C(=O)[C@@H](NC(=O)CNC(=O)CN(C)C(=O)C[C@@H]2N=C(c3ccc(Cl)cc3)c3c(sc(C)c3C)-n3c(C)nnc32)C(C)(C)C)cc1 [Compound 45, (2S,4R)-1-((S)-2-(2-(2-(2-((S)-4-(4-Chlorophenyl)-2,3,9-trimethyl-6H-thieno[3,2-f][1,2,4]triazolo[4,3-a][1,4]diazepin-6-yl)-N-methylacetamido)acetamido)acetamido)-3,3-dimethylbutanoyl)-4-hydroxy-N-(4-(4-methylthiazol-5-yl)benzyl)pyrrolidine-2-carboxamide] (JQ1acid-[Sar]G[Tle][Hyp]-{NHBn(4-(4-Me-thiazol-5-yl))}) |  |  |  |  |  | 114.6 to 116 °C | 41,6 % of control | 107,9 % of control |  | 
Cc1ncsc1-c1ccc(CNC(=O)[C@@H]2C[C@@H](O)CN2C(=O)[C@@H](NC(=O)CNC(=O)CN2CCN(C(=O)C[C@@H]3N=C(c4ccc(Cl)cc4)c4c(sc(C)c4C)-n4c(C)nnc43)CC2)C(C)(C)C)cc1 [Compound 46, (2S,4R)-1-((S)-2-(2-(2-(4-(2-((S)-4-(4-Chlorophenyl)-2,3,9-trimethyl-6H-thieno[3,2-f][1,2,4]triazolo[4,3-a][1,4]diazepin-6-yl)acetyl)piperazin-1-yl)acetamido)acetamido)-3,3-dimethylbutanoyl)-4-hydroxy-N-(4-(4-methylthiazol-5-yl)benzyl)pyrrolidine-2-carboxamide] |  |  |  |  |  | 183.3 to 184.8 °C | 61,7 % of control | 135 % of control |  | 
Cc1sc2c(c1C)C(c1ccc(Cl)cc1)=N[C@@H](CC(=O)NCCCCNC(=O)COc1cccc3c1C(=O)N(C1CCC(=O)NC1=O)C3=O)c1nnc(C)n1-2 (some centres unmarked) [dBET1] |  |  |  |  |  |  |  |  |  | Thermodynamic aqueous solubility, HCl 0.01 N (pH = 2.0) ([2]; pH 2.0, literature data ref 58): 171 ^c μM; Thermodynamic aqueous solubility, PBS 0.1 M (pH = 7.4) ([2]; pH 7.4, literature data ref 58): 60 ^c μM

Second part, led by results:

solubility thermodynamic at 2 h [1, 3] | solubility thermodynamic at 2 h [1, 4] | dose-response of BRD4 degradation (in words) (BRD4; 8 h, MDA-MB-231 cells) | effect of cotreatment with proteasome inhibitor bortezomib on BRD4 degradation (BRD4; 8 h) | DC50 (BRD4; [5]) | melting point | Densitometry (% of control), BRD4-immunoreactive band relative to DMSO vehicle (BRD4; 4 h, MDA-MB-231 cells) | Densitometry (% of control), BRD4-immunoreactive band relative to DMSO vehicle (BRD4; 8 h, MDA-MB-231 cells) | SMILES | BRD4 degradation in time-course experiments (in words) (BRD4; MDA-MB-231 cells) | further results
5070 µM (≈ 4410 µg/mL) | 11 µM (≈ 9.55 µg/mL) | showed the well-known “hook effect” | abolish BRD4 degradation | 0.06 µM | 194.8 to 196.8 °C (dec.) |  |  | Cc1sc2c(c1C)C(c1ccc(Cl)cc1)=N[C@@H](CC(=O)N1CCN(CC(=O)NCCCCCOc3cccc4c3C(=O)N(C3CCC(=O)NC3=O)C4=O)CC1)c1nnc(C)n1-2 (stereo partly drawn) [Compound 34, 2-(4-(2-((S)-4-(4-Chlorophenyl)-2,3,9-trimethyl-6H-thieno[3,2-f][1,2,4]triazolo[4,3-a][1,4]diazepin-6-yl)acetyl)piperazin-1-yl)-N-(5-((2-(2,6-dioxopiperidin-3-yl)-1,3-dioxoisoindolin-4-yl)oxy)pentyl)acetamide] | decreased expression of BRD4 at all the time-points tested | concentration of maximal BRD4 degradation (BRD4; dose-response 100 nM to 10 μM, 8 h, MDA-MB-231 cells): 300 nM
 |  |  |  |  | 173.8 to 174.5 °C (dec.) | 107,8 % of control | 40,1 % of control | Cc1sc2c(c1C)C(c1ccc(Cl)cc1)=N[C@@H](CC(=O)N1CCN(CC(=O)NCCOCCOc3cccc4c3C(=O)N(C3CCC(=O)NC3=O)C4=O)CC1)c1nnc(C)n1-2 (stereo partly drawn) [Compound 35, 2-(4-(2-((S)-4-(4-Chlorophenyl)-2,3,9-trimethyl-6H-thieno[3,2-f][1,2,4]triazolo[4,3-a][1,4]diazepin-6-yl)acetyl)piperazin-1-yl)-N-(2-(2-((2-(2,6-dioxopiperidin-3-yl)-1,3-dioxoisoindolin-4-yl)oxy)ethoxy)ethyl)acetamide] |  | Densitometry (% of control), BRD4-immunoreactive band relative to DMSO vehicle (BRD4; 16 h, MDA-MB-231 cells): 39,2 % of control; Densitometry (% of control), BRD4-immunoreactive band relative to DMSO vehicle (BRD4; 24 h, MDA-MB-231 cells): 72,1 % of control
 |  |  |  |  | 194.5 to 195.8 °C (dec.) | 110,8 % of control | 54,7 % of control | Cc1sc2c(c1C)C(c1ccc(Cl)cc1)=N[C@@H](CC(=O)N1CCN(CC(=O)NCCOCCOCCOc3cccc4c3C(=O)N(C3CCC(=O)NC3=O)C4=O)CC1)c1nnc(C)n1-2 (stereo partly drawn) [Compound 36, 2-(4-(2-((S)-4-(4-Chlorophenyl)-2,3,9-trimethyl-6H-thieno[3,2-f][1,2,4]triazolo[4,3-a][1,4]diazepin-6-yl)acetyl)piperazin-1-yl)-N-(2-(2-(2-((2-(2,6-dioxopiperidin-3-yl)-1,3-dioxoisoindolin-4-yl)oxy)ethoxy)ethoxy)ethyl)acetamide] |  | Densitometry (% of control), BRD4-immunoreactive band relative to DMSO vehicle (BRD4; 16 h, MDA-MB-231 cells): 41,4 % of control; Densitometry (% of control), BRD4-immunoreactive band relative to DMSO vehicle (BRD4; 24 h, MDA-MB-231 cells): 64,7 % of control
 |  |  |  |  | 164.3 to 165.5 °C | 50 % of control | 65,6 % of control | Cc1ncsc1-c1ccc(CNC(=O)[C@@H]2C[C@@H](O)CN2C(=O)[C@@H](NC(=O)CCCNC(=O)CN2CCN(C(=O)C[C@@H]3N=C(c4ccc(Cl)cc4)c4c(sc(C)c4C)-n4c(C)nnc43)CC2)C(C)(C)C)cc1 [Compound 47, (2S,4R)-1-((S)-2-(4-(2-(4-(2-((S)-4-(4-Chlorophenyl)-2,3,9-trimethyl-6H-thieno[3,2-f][1,2,4]triazolo[4,3-a][1,4]diazepin-6-yl)acetyl)piperazin-1-yl)acetamido)butanamido)-3,3-dimethylbutanoyl)-4-hydroxy-N-(4-(4-methylthiazol-5-yl)benzyl)pyrrolidine-2-carboxamide] |  | 
